{"source": "patent US20060263827A1", "about": "“Novel endothelial cells, antibodies directed against said cells and use thereof, in particular for screening angiogenesis inhibiting substances” (priority 2002, published 2006)", "key": {"[1]": {"tested_on": "F/V cells (angiogenic endothelial cells of foetal bovine aorta)", "experiment": "Proliferation test on F/V cells", "assay_type": "cell-based", "conditions": "for sensitivity of F/V cells compared with F/0 cells to anti-angiogenic agent: F/V versus F/0 cells, seeded at low density (5000), FIG. 4", "procedure": "(§1) FIG. 5A relates in particular to the action of the type 3 antibodies on the proliferation of the F/V cells of angiogenic phenotype. FIG. 5B relates to the action of the type 3 antibodies on the proliferation of the F/O non-angiogenic cells. The test carried out is a proliferation test as described in the examples. The cells are cultured in DMEM supplemented with 5% newborn calf serum to which is added either no angiogenic factor (condition 0), or 2 ng/ml VEGF (condition VEGF), or 2 ng/ml FGF-2 (condition FGF-2). The antibody is added at the same time as the angiogenic factors, at variable concentrations (0, 1, 3 or 7 μg/ml).\n(§2) The test carried out is a proliferation test as described in the examples. The cells are cultured in DMEM supplemented with 5% newborn calf serum. The antibody is added at the same time as the angiogenic factors, at variable concentrations (0, 50 or 100 μg/ml).\n(§3) 12-well plates are seeded at a low density (5000 to 10,000 cells/well), in DMEM medium with 8% serum. After 24 hours, the proliferation of the cells is stimulated by the addition of a range of growth factor, anti-angiogenic medicaments (methoxyestradiol, fumagillin, SU5416 targeted on VEGF-R2—Plouët et al., 2001) or antibodies of the present invention. The cells are restimulated after 48 hours and then after a total of five days in culture the cells are trypsinated and counted with a Coulter counter.\nThe F/0 and F/V cells are seeded at a low density (5000) as indicated and three drugs are inoculated separately, 2 of which are of unknown mechanism (Methoxyestradiol-ME-2 and fumagillin—FUMA) and 1 interfering with VEGF-R2 (SU 5416) inhibiting kinase activity."}, "[2]": {"tested_on": "F/0 cells (non-angiogenic endothelial cells of foetal bovine aorta)", "experiment": "Proliferation test on F/0 cells", "assay_type": "cell-based", "procedure": "as §1, §2\nas §3, with “counter. […]” for “counter.”"}}, "note": "“Also recorded” adds a separate entry of the source.", "data": [{"compound": "VEGF", "values": [{"measurement": "ED 50 of mitogenic action", "setting": "[1]; F/V cells", "result": 0.3, "unit": "ng/mL"}, {"measurement": "proliferation under the action of VEGF (in words)", "setting": "[2]", "result": "do not proliferate"}]}, {"compound": "CO[C@@H]1[C@H](OC(=O)/C=C/C=C/C=C/C=C/C(=O)O)CC[C@]2(CO2)[C@H]1[C@@]1(C)O[C@@H]1CC=C(C)C", "note": "[fumagillin]", "values": [{"measurement": "sensitivity of F/V cells compared with F/0 cells to anti-angiogenic agent", "setting": "[1]", "result": "identically sensitive; also recorded: equally sensitive"}]}, {"compound": "COc1cc2c(cc1O)CC[C@@H]1[C@@H]2CC[C@]2(C)[C@@H](O)CC[C@@H]12", "note": "[methoxyestradiol]", "values": [{"measurement": "sensitivity of F/V cells compared with F/0 cells to anti-angiogenic agent", "setting": "[1]", "result": "identically sensitive; also recorded: equally sensitive"}]}, {"compound": "Cc1cc(C)c(/C=C2\\C(=O)Nc3ccccc32)[nH]1", "note": "[SU 5416]", "values": [{"measurement": "sensitivity of F/V cells compared with F/0 cells to anti-angiogenic agent", "setting": "[1]", "result": "much more sensitive"}]}]}
